Patent publication US8598226B2, “Fused cyclic compounds” (Takeda Pharmaceutical Company Limited, priority 2006, dated 2013)
Counter-ions that a name gives are not always drawn.

Molecular target: T1, human-derived GPR40 (Homo sapiens, UniProt O14842)
T1 construct: expressed in transfected cells
Assay: Receptor function modulating action (agonist action) on human-derived GPR40: variation in intracellular calcium concentration in CHO cells (FLIPR or Cell Lux)
Assay type: cell-based
Conditions: CHO cell line stably expressing human-derived GPR40
Method: A CHO cell line stably expressing human-derived GPR40 was used for determining the agonist activity. […] One day before the assay, the cells cultured to near confluence were rinsed with PBS (Invitrogen), detached using 0.5 mM EDTA (Wako Pure Chemical Industries, Ltd.) and recovered by centrifugation. The obtained cells were counted and diluted to 3×10^5 cells per 1 mL medium. The cells were dispensed to a 96-well black clear bottom plate (Coster) by 100 μL per well and cultured overnight in a CO2 incubator. To the CHO cells prepared in this manner were added various test compounds, and variation in the intracellular calcium concentration was measured using FLIPR (Molecular Device) or Cell Lux (PerkinElmer). For measurement of variation in the intracellular calcium concentration using FLIPR or Cell Lux, the following pretreatment was performed. […] Then, a fluorescence dye solution was dispensed by 100 μL per well, and the cells were cultured in a CO2 incubator for 1 hr to allow intake of the fluorescence dye. During this time, the test compound was diluted to a given concentration with the assay buffer, and dispensed to a polypropylene 96-well plate (sample plate) by 100 μL. The cell plate and the sample plate were simultaneously set in the FLIPR or Cell Lux. After the foregoing pretreatment, variation in the intracellular calcium concentration after addition of 50 μL of various test compounds was measured using FLIPR or Cell Lux.

[1] = each compound at 1 μM, relative to activity of 10 μM γ-linolenic acid = 100%, FLIPR for Examples 2, 6, 8, 10, 11, 13, Cell Lux for Examples 19-34

T1 sequence (O14842 whole entry): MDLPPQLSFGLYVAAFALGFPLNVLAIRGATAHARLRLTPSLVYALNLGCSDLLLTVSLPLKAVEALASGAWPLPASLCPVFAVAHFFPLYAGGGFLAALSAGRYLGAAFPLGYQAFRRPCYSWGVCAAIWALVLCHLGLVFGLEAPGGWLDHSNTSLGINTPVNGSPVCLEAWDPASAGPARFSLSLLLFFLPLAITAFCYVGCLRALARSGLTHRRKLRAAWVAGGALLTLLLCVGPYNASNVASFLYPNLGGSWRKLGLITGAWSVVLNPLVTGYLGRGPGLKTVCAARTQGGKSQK

Row | Compound | activation at 1 µM [1] [%] | also measured
1 | Cc1cc(OC2CCS(=O)(=O)CC2)cc(C)c1-c1cccc(COc2ccc3c(c2)OC[C@H]3CC(=O)O)c1 [Example 2, [(3S)-6-({4′-[(1,1-dioxidotetrahydro-2H-thiopyran-4-yl)oxy]-2′,6′-dimethylbiphenyl-3-yl}methoxy)-2,3-dihydro-1-benzofuran-3-yl]acetic acid] | 107 | –
2 | Cc1cc(OCC2(O)CCS(=O)(=O)CC2)cc(C)c1-c1cccc(COc2ccc3c(c2)OC[C@H]3CC(=O)O)c1 [Example 6, [(3S)-6-({4′-[(4-hydroxy-1,1-dioxidotetrahydro-2H-thiopyran-4-yl)methoxy]-2′,6′-dimethylbiphenyl-3-yl}methoxy)-2,3-dihydro-1-benzofuran-3-yl]acetic acid] | 102 | –
3 | Cc1c(C)c(-c2cccc(COc3ccc4c(c3)OC[C@H]4CC(=O)O)c2)c(C)c(C)c1OCCCS(C)(=O)=O [Example 8, [(3S)-6-({2′,3′,5′,6′-tetrameramethyl-4′-[3-(methylsulfonyl)propoxy]biphenyl-3-yl}methoxy)-2,3-dihydro-1-benzofuran-3-yl]acetic acid] | 112 | –
4 | Cc1cc(OCCCS(C)(=O)=O)cc(C)c1-c1cccc(COc2ccc3c(c2)OC[C@H]3CC(=O)O)c1 [Example 10, [(3S)-6-({2′,6′-dimethyl-4′-[3-(methylsulfonyl)propoxy]biphenyl-3-yl}methoxy)-2,3-dihydro-1-benzofuran-3-yl]acetic acid] | – | Relative activity value [1]: 114%
5 | CCS(=O)(=O)CCOc1cc(C)c(-c2cccc(COc3ccc4c(c3)OC[C@H]4CC(=O)O)c2)c(C)c1 [Example 11, [(3S)-6-({4′-[2-(ethylsulfonyl)ethoxy]-2′,6′-dimethylbiphenyl-3-yl}methoxy)-2,3-dihydro-1-benzofuran-3-yl]acetic acid] | 120 | –
6 | Cc1cc(OCCCS(C)(=O)=O)c(F)c(C)c1-c1cccc(COc2ccc3c(c2)OC[C@H]3CC(=O)O)c1 [Example 13, [(3S)-6-({3′-fluoro-2′,6′-dimethyl-4′-[3-(methylsulfonyl)propoxy]biphenyl-3-yl}methoxy)-2,3-dihydro-1-benzofuran-3-yl]acetic acid] | 125 | –
7 | Cc1cc(OCCCS(C)(=O)=O)cc(CO)c1-c1cccc(COc2ccc3c(c2)OC[C@H]3CC(=O)O)c1 [Example 19, [(3S)-6-({2′-(hydroxymethyl)-6′-methyl-4′-[3-(methylsulfonyl)propoxy]biphenyl-3-yl}methoxy)-2,3-dihydro-1-benzofuran-3-yl]acetic acid] | 118 | –
8 | Cc1cc(OCCCS(C)(=O)=O)cc(C)c1-c1cccc(COc2ccc3c(c2)OC[C@H]3CC(=O)O)c1 [Example 20, [(3S)-6-({2′,6′-dimethyl-4′-[3-(methylsulfonyl)propoxy]biphenyl-3-yl}methoxy)-2,3-dihydro-1-benzofuran-3-yl]acetic acid 0.5 hydrate] | – | Relative activity value (each compound at 1 μM, relative to activity of 10 μM γ-linolenic acid = 100%, FLIPR for Examples 2, 6, 8, 10, 11, 13, Cell Lux for Examples 19-34, hydrate): 118%
9 | Cc1cc(OCCCS(C)(=O)=O)c(Cl)c(C)c1-c1cccc(COc2ccc3c(c2)OC[C@H]3CC(=O)O)c1 [Example 22, [(3S)-6-({3′-chloro-2′,6′-dimethyl-4′-[3-(methylsulfonyl)propoxy]biphenyl-3-yl}methoxy)-2,3-dihydro-1-benzofuran-3-yl]acetic acid] | 121 | –
10 | Cc1c(Cl)c(OCCCS(C)(=O)=O)c(Cl)c(C)c1-c1cccc(COc2ccc3c(c2)OC[C@H]3CC(=O)O)c1 [Example 24, [(3S)-6-({3′,5′-dichloro-2′,6′-dimethyl-4′-[3-(methylsulfonyl)propoxy]biphenyl-3-yl}methoxy)-2,3-dihydro-1-benzofuran-3-yl]acetic acid] | 96 | –
11 | CCc1cc(OCCCS(C)(=O)=O)cc(CC)c1-c1cccc(COc2ccc3c(c2)OC[C@H]3CC(=O)O)c1 [Example 26, [(3S)-6-({2′,6′-diethyl-4′-[3-(methylsulfonyl)propoxy]biphenyl-3-yl}methoxy)-2,3-dihydro-1-benzofuran-3-yl]acetic acid] | 101 | –
12 | CCc1c(Cl)c(OCCCS(C)(=O)=O)c(Cl)c(CC)c1-c1cccc(COc2ccc3c(c2)OC[C@H]3CC(=O)O)c1 [Example 28, [(3S)-6-({3′,5′-dichloro-2′,6′-diethyl-4′-[3-(methylsulfonyl)propoxy]biphenyl-3-yl}methoxy)-2,3-dihydro-1-benzofuran-3-yl]acetic acid] | 92 | –
13 | Cc1cc(OCCCS(C)(=O)=O)cc(C)c1-c1cc(COc2ccc3c(c2)OC[C@H]3CC(=O)O)ccc1Oc1ccccc1 [Example 30, [(3S)-6-({2′,6′-dimethyl-4′-[3-(methylsulfonyl)propoxy]-6-phenoxybiphenyl-3-yl}methoxy)-2,3-dihydro-1-benzofuran-3-yl]acetic acid 0.5 calcium salt] | 108 | –
14 | Cc1cc(OCCCS(C)(=O)=O)cc(C)c1-c1cc(COc2ccc3c(c2)OC[C@H]3CC(=O)O)ccc1COc1ccccc1 [Example 32, [(3S)-6-({2′,6′-dimethyl-4′-[3-(methylsulfonyl)propoxy]-6-(phenoxymethyl)biphenyl-3-yl}methoxy)-2,3-dihydro-1-benzofuran-3-yl]acetic acid] | 104 | –
15 | Cc1cc(OCCCS(C)(=O)=O)cc(C)c1-c1cc(COc2ccc3c(c2)OC[C@H]3CC(=O)O)c(F)cc1OCc1ccccc1 [Example 34, [(3S)-6-({6-(benzyloxy)-4-fluoro-2′,6′-dimethyl-4′-[3-(methylsulfonyl)propoxy]biphenyl-3-yl}methoxy)-2,3-dihydro-1-benzofuran-3-yl]acetic acid] | 119 | –
16 | CCCCC/C=C\C/C=C\C/C=C\CCCCC(=O)O [γ-linoleic acid, γ-linolenic acid, reference compound] | – | Relative activity value (reference agonist at 10 μM, its activity set as 100%): 100%
